# Assay results as given in patent publication US10584116B2, “Heterocyclic sulfonamide derivative and medicine containing same” (EA Pharma Co., Ltd., priority 2016, dated 2020).
# Molecular target: human TRPA1 (Homo sapiens (Human), UniProt O75762)
# Assay: Measurement of TRPA1 antagonist activity (intracellular calcium increase induced by allylisothiocyanate in 293T cells transfected with human TRPA1)
# Type: cell-based
# Settings: 293T cells expressing human TRPA1, allylisothiocyanate stimulation, FLIPR Calcium4 fluorescence; read-out: hTRPA1 IC50
# Description: Measurement of TRPA1 Antagonist Activity
# Human TRPA1 Expression Plasmid
# Using cDNA encoding human TRPA1 (GenBank accession No. NM_007332) (manufactured by Kazusa DNA Research Institute, item No. FHC07217) as a template, primer 1 (SEQ ID NO: 1) and primer 2 (SEQ ID NO: 2), PCR by PfuUltra High-Fidelity DNA Polymerase (Stratagene) was performed, and full-length human TRPA1 gene was amplified.
# A recognition site (underlined) of restriction enzyme HindIII was added to the 5′ end of human TRPA1 gene, and XbaI site (underlined) was added to the 3′ end of human TRPA1 gene, and GTT of the template sequence was changed to termination codon TAG (bold). The obtained double stranded DNA was enzyme-digested with HindIII and XbaI, and introduced into a multicloning site of expression plasmid pcDNA3.1/zeo(+) (manufactured by Invitrogen) to give a human TRPA1 expression plasmid.
# Human embryonic kidney-derived 293T cells were cultured in Dulbecco's Modified Eagle Medium containing 10% fetal bovine serum, 10 unit penicillin, and 10 μg streptomycin. One day before assay, 3×10^6 of 293T cells were plated on a petri dish having a diameter of 10 cm, and cultured in a CO2 incubator for 24 hr. OPTI-MEM I Reduced Serum Media (Invitrogen) (600 μL), Mirus TransIT-293 (Mirus Bio) (18 μL), and human TRPA1 expression plasmid (6 μg) were mixed, the total amount of the mixture was added to the cells on the petri dish to allow for gene transfer. The cells were recovered about for 8 hr later, plated on a poly-D-lysine coated 384 well black/clear bottom plate at 12,000 cells/well, and cultured overnight.
# Measurement of Intracellular Calcium Increase
# The medium was removed from the 384 well plate, calcium indicator (Molecular Device, trade name: FLIPR Calcium4 Assay Kit) dissolved in HBSS (Thermo Fisher Scientific) (pH 7.2) containing 20 mM HEPES was added (38 μL/well), and the cells were stained in a CO2 incubator for 1 hr. The 384 well plate was stood at room temperature for not less than 15 min, set on FDSS7000 (Hamamatsu Photonics K.K.), and a test substance solution was added at 10 μL/well. After 10 min, allylisothiocyanate solution (12 μL/well) was added, the relative fluorescence intensity was measured for 5 min after addition of the allylisothiocyanate solution.
# Test Substance Preparation
# Preparation of Test Substance Solution and Allylisothiocyanate Solution
# A test substance solution was prepared to have a composition of HBSS (Thermo Fisher Scientific) (pH 7.2) containing 0.48% dimethyl sulfoxide, a test substance at 4.8-fold concentration of the evaluation concentration, 0.1% bovine serum albumin and 20 mM HEPES. An allylisothiocyanate solution was prepared to have a composition of HBSS (Thermo Fisher Scientific) (pH 7.2) containing 0.1% dimethyl sulfoxide, 100 μM allylisothiocyanate, 0.1% bovine serum albumin and 20 mM HEPES.
# Calculation of Antagonist Activity
# The activity rate of a test substance at each concentration was calculated, wherein the relative fluorescence intensity change of a well free of a test substance and containing allylisothiocyanate is 100% activity rate, and the relative fluorescence intensity change of a well free of a test substance and allylisothiocyanate is 0% activity rate. The inhibitory rate of a test substance at each concentration was calculated by subtracting the activity rate of the test substance from 100% activity rate, and the concentration of a test substance showing 50% inhibitory rate was calculated as IC50 from the sigmoid approximate curve by XLfit (idbs).
# human TRPA1, sequence (O75762 whole entry): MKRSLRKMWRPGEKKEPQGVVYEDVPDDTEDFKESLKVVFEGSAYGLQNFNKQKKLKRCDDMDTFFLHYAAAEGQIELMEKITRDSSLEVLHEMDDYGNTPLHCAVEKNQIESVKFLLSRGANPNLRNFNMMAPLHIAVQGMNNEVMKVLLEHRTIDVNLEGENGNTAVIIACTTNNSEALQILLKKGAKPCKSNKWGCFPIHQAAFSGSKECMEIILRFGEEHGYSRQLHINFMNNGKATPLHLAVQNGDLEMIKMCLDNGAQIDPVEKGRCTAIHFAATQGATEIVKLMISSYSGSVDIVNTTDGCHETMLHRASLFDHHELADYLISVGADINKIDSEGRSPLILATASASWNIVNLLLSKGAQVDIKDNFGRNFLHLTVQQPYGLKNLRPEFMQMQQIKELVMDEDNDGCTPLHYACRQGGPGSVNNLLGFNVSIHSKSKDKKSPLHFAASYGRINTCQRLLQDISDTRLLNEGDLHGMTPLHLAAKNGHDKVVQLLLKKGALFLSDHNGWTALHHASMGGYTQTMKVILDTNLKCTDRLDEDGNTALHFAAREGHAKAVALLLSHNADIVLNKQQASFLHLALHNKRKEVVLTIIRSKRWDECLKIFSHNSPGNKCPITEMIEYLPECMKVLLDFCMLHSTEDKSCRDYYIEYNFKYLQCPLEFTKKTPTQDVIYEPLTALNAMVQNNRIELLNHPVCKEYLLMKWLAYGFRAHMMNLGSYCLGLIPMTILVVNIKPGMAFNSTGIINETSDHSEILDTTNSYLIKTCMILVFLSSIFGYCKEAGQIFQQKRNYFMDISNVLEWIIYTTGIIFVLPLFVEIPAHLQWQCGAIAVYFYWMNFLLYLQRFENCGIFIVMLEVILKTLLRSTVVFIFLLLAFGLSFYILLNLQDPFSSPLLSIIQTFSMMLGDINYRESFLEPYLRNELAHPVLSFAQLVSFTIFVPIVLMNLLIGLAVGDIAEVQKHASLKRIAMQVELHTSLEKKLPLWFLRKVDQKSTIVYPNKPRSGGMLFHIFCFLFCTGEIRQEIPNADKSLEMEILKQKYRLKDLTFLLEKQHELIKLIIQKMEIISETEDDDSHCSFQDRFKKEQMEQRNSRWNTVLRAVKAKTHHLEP
row,SMILES,IC50
1,"CC(C)n1cc(-c2ccc(C(F)(F)F)cc2)cc(CNC(=O)[C@@H]2CCCN2S(=O)(=O)c2cc3c(F)cccc3o2)c1=O [Example 44, (2S)-1-(4-fluorobenzofuran-2-yl)sulfonyl-N-[[1-isopropyl-2-oxo-5-[4-(trifluoromethyl)phenyl]-3-pyridyl]methyl]pyrrolidine-2-carboxamide]",0.44 µM
2,"CC(C)n1c(=O)c(CNC(=O)[C@@H]2CCCN2S(=O)(=O)c2ccc(Cl)s2)cn(-c2ccc(C(F)(F)F)cc2)c1=O [Example 11, (2S)-1-[(5-chloro-2-thienyl)sulfonyl]-N-[[3-isopropyl-2,4-dioxo-1-[4-(trifluoromethyl)phenyl]-pyrimidin-5-yl]methyl]pyrrolidine-2-carboxamide]",0.033 µM
3,"CC(C)n1cc(CNC(=O)[C@@H]2CCCN2S(=O)(=O)c2cc3ccccc3o2)cc(-c2ccc(C(F)(F)F)cn2)c1=O [Example 50, (2S)-1-(benzofuran-2-ylsulfonyl)-N-[[1-isopropyl-6-oxo-5-[5-(trifluoromethyl)-2-pyridyl]-3-pyridyl]methyl]pyrrolidine-2-carboxamide]",0.11 µM
4,"CC(C)n1cc(CNC(=O)[C@@H]2CCCN2S(=O)(=O)c2cc3cc(F)ccc3o2)cc(-c2ccc(C(F)(F)F)nc2)c1=O [Example 49, (2S)-1-(5-fluorobenzofuran-2-yl)sulfonyl-N-[[1-isopropyl-6-oxo-5-[6-(trifluoromethyl)-3-pyridyl]-3-pyridyl]methyl]pyrrolidine-2-carboxamide]",0.045 µM
5,"CC(C)n1c(=O)c(CNC(=O)[C@@H]2CCCN2S(=O)(=O)c2ccc(F)cc2)cn(-c2ccc(C(F)(F)F)cc2)c1=O [Example 12, (2S)-1-(4-fluorophenyl)sulfonyl-N-[[3-isopropyl-2,4-dioxo-1-[4-(trifluoromethyl)phenyl]pyrimidin-5-yl]methyl]pyrrolidine-2-carboxamide]",0.12 µM
6,"CC(C)n1cc(CNC(=O)[C@@H]2[C@@H](O)CCN2S(=O)(=O)c2cc3cc(F)ccc3o2)cc(-c2ccc(C(F)(F)F)cc2)c1=O [Example 47, (2S,3S)-1-(5-fluorobenzofuran-2-yl)sulfonyl-3-hydroxy-N-[[1-isopropyl-6-oxo-5-[4-(trifluoromethyl)phenyl]-3-pyridyl]methyl]pyrrolidine-2-carboxamide]",0.23 µM
7,"CC(C)n1c(=O)c(CNC(=O)[C@@H]2CCCN2S(=O)(=O)c2cc3cc(F)ccc3o2)cn(-c2ccc(Cl)cc2)c1=O [Example 41, (2S)-N-[[1-(4-chlorophenyl)-3-isopropyl-2,4-dioxo-pyrimidin-5-yl]methyl]-1-(5-fluorobenzofuran-2-yl)sulfonyl-pyrrolidine-2-carboxamide]",0.024 µM
8,"CCn1c(=O)c(CNC(=O)[C@@H]2CCCN2S(=O)(=O)c2cc3ccccc3o2)cn(-c2ccc(C(F)(F)F)cc2)c1=O [Example 2, (2S)-1-(benzofuran-2-ylsulfonyl)-N-[[3-ethyl-2,4-dioxo-1-[4-(trifluoromethyl)phenyl]pyrimidin-5-yl]methyl]pyrrolidine-2-carboxamide]",0.026 µM
9,"CC(C)n1cc(CNC(=O)[C@@H]2CCCN2S(=O)(=O)c2cc3cnccc3o2)cc(-c2ccc(C(F)(F)F)cc2)c1=O [Example 46, (2S)-1-fro[3,2-c]pyridin-2-ylsulfonyl-N-[[1-isopropyl-6-oxo-5-[4-(trifluoromethyl)phenyl]-3-pyridyl]methyl]pyrrolidine-2-carboxamide]",0.098 µM
10,"O=C(NCc1ccc(=O)n(-c2ccc(C(F)(F)F)cc2)c1)[C@@H]1CCCN1S(=O)(=O)c1cc2cc(F)ccc2o1 [Example 22, (2S)-1-(5-fluorobenzofuran-2-yl)sulfonyl-N-[[6-oxo-1-[4-(trifluoromethyl)phenyl]-3-pyridyl]methyl]pyrrolidine-2-carboxamide]",0.06 µM
11,"CC(C)n1c(=O)c(CNC(=O)[C@@H]2CCN2S(=O)(=O)c2cc3cc(F)ccc3o2)cn(-c2ccc(C(F)(F)F)cc2)c1=O [Example 18, (2S)-1-(5-fluorobenzofuran-2-yl)sulfonyl-N-[[3-isopropyl-2,4-dioxo-1-[4-(trifluoromethyl)phenyl]-pyrimidin-5-yl]methyl]azetidine-2-carboxamide]",0.009 µM
12,"C[C@H](NS(=O)(=O)c1cc2cc(F)ccc2o1)C(=O)NCc1cn(-c2ccc(C(F)(F)F)cc2)c(=O)n(C)c1=O [Example 6, (2S)-2-[(5-fluorobenzofuran-2-yl)sulfonylamino]-N-[[3-methyl-2,4-dioxo-1-[4-(trifluoromethyl)phenyl]-pyrimidin-5-yl]methyl]propanamide]",0.54 µM
13,"CC(C)n1cc(-c2ccc(C(F)(F)F)nc2)cc(CNC(=O)[C@@H]2CCCN2S(=O)(=O)c2cc3cc(F)ccc3o2)c1=O [Example 37, (2S)-1-(5-fluorobenzofuran-2-yl)sulfonyl-N-[[1-isopropyl-2-oxo-5-[6-(trifluoromethyl)-3-pyridyl]-3-pyridyl]methyl]pyrrolidine-2-carboxamide]",0.031 µM
14,"CC(C)n1c(=O)c(CNC(=O)[C@@H]2CCCN2S(=O)(=O)c2cc3cc(F)ccc3o2)cn(-c2ccc(C(F)(F)F)nc2)c1=O [Example 30, (2S)-1-(5-fluorobenzofuran-2-yl)sulfonyl-N-[[3-isopropyl-2,4-dioxo-1-[6-(trifluoromethyl)-3-pyridyl]pyrimidin-5-yl]methyl]pyrrolidine-2-carboxamide]",0.01 µM
15,CC(C)n1c(=O)c(CNC(=O)[C@@H]2CCCN2S(=O)(=O)c2cc3cc(F)ccc3o2)cn(-c2ccc(F)cc2)c1=O [Example 39],0.1 µM
16,"Cc1ccc2oc(S(=O)(=O)N3CCC[C@H]3C(=O)NCc3cn(-c4ccc(C(F)(F)F)cc4)c(=O)n(C(C)C)c3=O)cc2c1 [Example 25, (2S)-N-[[3-isopropyl-2,4-dioxo-1-[4-(trifluoromethyl)phenyl]pyrimidin-5-yl]methyl]-1-(5-methylbenzofuran-2-yl)sulfonyl-pyrrolidine-2-carboxamide]",0.42 µM
17,"Cn1c(=O)c(CNC(=O)[C@@H]2CCCN2S(=O)(=O)c2cc3cc(F)ccc3o2)cn(-c2ccc(C(F)(F)F)cc2)c1=O [Example 5, (2S)-1-(5-fluorobenzofuran-2-yl)sulfonyl-N-[[3-methyl-2,4-dioxo-1-[4-(trifluoromethyl)phenyl]-pyrimidin-5-yl]methyl]pyrrolidine-2-carboxamide]",0.021 µM
18,"CC(C)n1cc(-c2ccc(C(F)(F)F)cc2)cc(CNC(=O)[C@@H]2CCCN2S(=O)(=O)c2cc3cnccc3o2)c1=O [Example 27, (2S)-1-fro[3,2-c]pyridin-2-ylsulfonyl-N-[[1-isopropyl-2-oxo-5-[4-(trifluoromethyl)phenyl]-3-pyridyl]methyl]pyrrolidine-2-carboxamide]",0.093 µM
19,"CC(C)n1c(=O)c(CNC(=O)[C@@H]2[C@@H](O)CCN2S(=O)(=O)c2cc3ccccc3o2)cn(-c2ccc(C(F)(F)F)cc2)c1=O [Example 7, (2S,3S)-1-(benzofuran-2-ylsulfonyl)-3-hydroxy-N-[[3-isopropyl-2,4-dioxo-1-[4-(trifluoromethyl)phenyl]-pyrimidin-5-yl]methyl]pyrrolidine-2-carboxamide]",0.22 µM
20,"CC(C)n1c(=O)c(CNC(=O)[C@@H]2CCCN2S(=O)(=O)c2cc3c(F)cccc3o2)cn(-c2ccc(C(F)(F)F)cc2)c1=O [Example 10, (2S)-1-(4-fluorobenzofuran-2-yl)sulfonyl-N-[[3-isopropyl-2,4-dioxo-1-[4-(trifluoromethyl)phenyl]-pyrimidin-5-yl]methyl]pyrrolidine-2-carboxamide]",0.025 µM
